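Grown in 96-well plates, cells were treated for 48 hours with each compound at five concentrations. Insufficient inhibition: endpoint recorded as highest concentration tested. Definition used: TGI = concentration required for complete inhibition of growth.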
What was measured:
Experiment in all cases: DTP human tumour cell line panel, 48 h
HOP-92 NSCLC = tested on: HOP-92 NSCLC
NCI-H522 lung = tested on: NCI-H522 lung
KM12 colon = tested on: KM12 colon
SR leukemia = tested on: SR leukemia
OVCAR-3 ovarian = tested on: OVCAR-3 ovarian
HCT-15 colon = tested on: HCT-15 colon
TK-10 renal = tested on: TK-10 renal
SF-268 CNS = tested on: SF-268 CNS
OVCAR-8 ovarian = tested on: OVCAR-8 ovarian
LOX IMVI melanoma = tested on: LOX IMVI melanoma
SK-OV-3 ovarian = tested on: SK-OV-3 ovarian
MOLT-4 leukemia = tested on: MOLT-4 leukemia
IGROV1 ovarian = tested on: IGROV1 ovarian
HCC-2998 colon = tested on: HCC-2998 colon
CAKI-1 renal = tested on: CAKI-1 renal
U251 CNS = tested on: U251 CNS
MCF7 breast = tested on: MCF7 breast
COLO 205 colon = tested on: COLO 205 colon
T-47D breast = tested on: T-47D breast
MDA-MB-435 = tested on: MDA-MB-435
NCI-H23 lung = tested on: NCI-H23 lung
DU-145 prostate = tested on: DU-145 prostate
MDA-N = tested on: MDA-N
NCI-H226 lung = tested on: NCI-H226 lung
ACHN renal = tested on: ACHN renal
SW-620 colon = tested on: SW-620 colon
NCI/ADR-RES ovarian = tested on: NCI/ADR-RES ovarian
HOP-62 NSCLC = tested on: HOP-62 NSCLC
SK-MEL-5 melanoma = tested on: SK-MEL-5 melanoma
RPMI-8226 leukemia = tested on: RPMI-8226 leukemia
HCT-116 colon = tested on: HCT-116 colon
UACC-257 melanoma = tested on: UACC-257 melanoma
A498 renal = tested on: A498 renal
K-562 leukemia = tested on: K-562 leukemia
M14 melanoma = tested on: M14 melanoma
RXF 393 renal = tested on: RXF 393 renal
CCRF-CEM leukemia = tested on: CCRF-CEM leukemia
A549 NSCLC = tested on: A549 NSCLC
SN12C renal = tested on: SN12C renal
HS 578T breast = tested on: HS 578T breast
UO-31 renal = tested on: UO-31 renal
HL-60(TB) leukemia = tested on: HL-60(TB) leukemia
SF-295 CNS = tested on: SF-295 CNS
OVCAR-5 ovarian = tested on: OVCAR-5 ovarian
SNB-75 CNS = tested on: SNB-75 CNS
HT29 colon = tested on: HT29 colon
NCI-H460 lung = tested on: NCI-H460 lung
EKVX NSCLC = tested on: EKVX NSCLC
UACC-62 melanoma = tested on: UACC-62 melanoma
786-0 renal = tested on: 786-0 renal
SNB-19 CNS = tested on: SNB-19 CNS
SK-MEL-28 melanoma = tested on: SK-MEL-28 melanoma
PC-3 prostate = tested on: PC-3 prostate
MDA-MB-231 breast = tested on: MDA-MB-231 breast
MALME-3M melanoma = tested on: MALME-3M melanoma
SF-539 CNS = tested on: SF-539 CNS
SK-MEL-2 melanoma = tested on: SK-MEL-2 melanoma
OVCAR-4 ovarian = tested on: OVCAR-4 ovarian

Measured: TGI

COC(=O)[C@H]1ON2O[C@@H](O[C@H]3CCCC[C@@H]3C(C)(C)c3ccccc3)C[C@@H]3CC[C@H]1[C@@]32C
not listed: SNB-19 CNS | SK-MEL-28 melanoma | PC-3 prostate | MDA-MB-231 breast | MALME-3M melanoma | SF-539 CNS | SK-MEL-2 melanoma | OVCAR-4 ovarian
> 100 µM: all other assays above

COc1cc(/C=C/C(=O)O)ccc1O
not listed: SK-OV-3 ovarian | A498 renal | RXF 393 renal | UACC-62 melanoma
> 100 µM: all other assays above
